These are literature values, as cited in patent US20210121562A1, “PHARMACEUTICAL COMPOSITION FOR TREATMENT AND/OR PREVENTION OF CANCER” (TORAY INDUSTRIES, INC., priority 2018, published 2021).

For one data set, the system named is basal cell cancer. As to conditions: basal cell cancer in patients having histories of rituximab administration for non-Hodgkin lymphoma.
The subject of data set [1] is extramammary Paget's disease. As to conditions: supportive care for extramammary Paget's disease.

As to `CC(C)Cn1cnc2c(N)nc3ccccc3c21` [imiquimod, 4-amino-1-(2-methylpropyl)-1H-imidazo[4,5-c]quinoline], in the data set on basal cell cancer, the “antitumor effect of imiquimod” value is “attenuated”. The cases completely responded in data set [1] is on record as 7 out of 9.
